Test results as given in patent publication US20260201008A1, “SECRETIN-DERIVED GLP1R SELECTIVE AGONISTS” (GUBRA A/S, priority 2023, published 2026).
Values after ≈ are worked out from the molar mass of the structure shown. Like-named read-outs stand apart in the source and are kept apart here. Numbered stars: 1 amine (or outer) side, 2 acyl side, 3 side chain; on linkers, the order of the positions; unused ones are H or OH. Square brackets hold non-standard residues; d marks the D form. Side chains are listed from the residue outwards. Peptide text beside a SMILES is read from it. * marks the point of attachment. C20 diacid = O=C(O)CCCCCCCCCCCCCCCCCCC(=O)*; γGlu = O=C(O)[C@H](CCC(=O)[*:2])N[*:1]; AEEA = NCCOCCOCC(=O)O; Aib = CC(C)(N)C(=O)O

Legend:
[1] = target: GLP1R (Homo sapiens, UniProt P43220); assay: hGLP1R potency, cAMP accumulation in CHO-K1 cells stably overexpressing hGLP1R; format: cell-based; parameters: host or cells: CHO-K1; conditions: for Selectivity: SCTR EC50/GLP1R EC50 ratio
Procedure, shortened: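 CHO-K1 cells stably expressing hGLP1R (2000/well) in DPBS with 0.05% casein and 0.5 mM IBMX were stimulated 30 min at room temperature with graded compound doses; human GLP-1(7-36) served as positive control. cAMP was read by HTRF after 1 h; EC50 came from variable-slope sigmoid fits (purified peptides: 11-point 3-fold, n=2).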

[2] = Thioflavin T fibril formation assay of purified peptides; format: physicochemical; conditions: 267 μM, phosphate buffer pH 7.0, 96 h at 40° C.
Protocol: Thioflavin T fibril formation assay: Peptides are dissolved as 267 μM in 50 mM phosphate buffer pH 7.0 for 2 h at room temperature on a rocking table. The samples were then divided into three replicates of 80 μl/well and mixed with 2 μl/well Thioflavin T (ThT) to a final concentration of 4 μM ThT in a black 384 well microplate with a clear bottom (Greiner #781096). The plate is inserted in a CLARIOstar Plus microplate reader (BMG Labtech) and fibril formation is measured as an increase in fluorescence emission at 480 nm (excitation at 450 nm) during 96 h at 40° C. with cycles of 5 min rest and 5 min linear shaking at 700 rpm.

[3] = target: SCTR (Homo sapiens, UniProt P47872); assay: hSCTR potency, cAMP accumulation in CHO-K1 cells stably overexpressing hSCTR; format: cell-based; parameters: alternatively Euroscreen ES-712-AF; FAST-0161L; host or cells: CHO-K1
Procedure, shortened: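 Cells plated at 2000/well in DPBS with 0.05% casein and 0.5 mM IBMX, stimulated 30 min at room temperature with graded compound doses; human secretin as positive control. cAMP read by TR-FRET after 1 h. Purified peptides tested at 11 3-fold dilutions, n=2; EC50 by variable-slope sigmoid fit.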

[4] = Solubility of purified peptides; format: physicochemical; conditions: 100 mM phosphate buffer, target pH 7.0, target approximately 10 mg/mL
Protocol: Solubility was tested in the following vehicles: 100 mM phosphate buffer facilitating a target pH of 7.0. Samples were directly dissolved in Mini-UniPrep Syringeless Filter 0.45 μm unit (Whatman). For the desired concentration, such as a concentration of approximately 10 mg/mL, 1050 nmol of peptide was dissolved in 400 μL vehicle. Samples were incubated for at least 1 h at room temperature on a rocking table. The pH was measured and adjusted. Samples were left on the rocking table for an additional hour before a second pH measurement and adjustment. Visual inspection was performed and noted before the filter was pushed. The concentration of peptide in the filtrate was determined using CAD (Charged Aerosol Detection), double determination was done for each sample. The measured concentration was reported in μM. Furthermore, the pH of the filtrate was measured and reported. Peptides with a measured concentration within +/−20% of target concentration are considered fully soluble.

[5] = Table 2, extended 30 amino acid peptides
[6] = Table 2, extended 30 amino acid peptides, read-out: PEC50 hGLPR1 (converted)
[7] = Table 2, extended 30 amino acid peptides, read-out: pEC50 hSCTR (converted)

Sequence of GLP1R (P43220 24-463): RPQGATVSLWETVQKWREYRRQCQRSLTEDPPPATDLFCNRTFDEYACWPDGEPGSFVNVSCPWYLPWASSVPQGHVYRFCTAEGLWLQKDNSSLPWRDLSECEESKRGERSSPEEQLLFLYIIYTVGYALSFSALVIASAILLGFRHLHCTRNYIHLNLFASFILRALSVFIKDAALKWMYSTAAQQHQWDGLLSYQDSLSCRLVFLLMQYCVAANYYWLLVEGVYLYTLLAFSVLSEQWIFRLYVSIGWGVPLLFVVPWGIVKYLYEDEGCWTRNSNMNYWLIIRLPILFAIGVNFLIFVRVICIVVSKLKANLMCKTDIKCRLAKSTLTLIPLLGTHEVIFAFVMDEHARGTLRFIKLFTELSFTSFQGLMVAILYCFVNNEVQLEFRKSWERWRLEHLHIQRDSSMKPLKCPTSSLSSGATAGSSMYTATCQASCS
Sequence of SCTR (P47872 23-440): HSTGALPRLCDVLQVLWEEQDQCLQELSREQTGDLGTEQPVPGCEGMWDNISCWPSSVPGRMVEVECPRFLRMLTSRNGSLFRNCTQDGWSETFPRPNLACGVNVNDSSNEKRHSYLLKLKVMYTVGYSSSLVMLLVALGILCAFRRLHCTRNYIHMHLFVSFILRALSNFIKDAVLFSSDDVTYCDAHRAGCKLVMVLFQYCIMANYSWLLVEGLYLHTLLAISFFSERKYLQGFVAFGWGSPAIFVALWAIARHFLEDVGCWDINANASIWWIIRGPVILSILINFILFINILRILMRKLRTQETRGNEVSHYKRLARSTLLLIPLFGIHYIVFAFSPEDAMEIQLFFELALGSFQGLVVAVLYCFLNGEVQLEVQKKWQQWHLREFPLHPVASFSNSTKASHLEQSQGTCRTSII

Row | Selectivity ([1]; purified peptides) | Fibril formation [2] | solubility [4] [µg/mL] | Selectivity [1, 5] | EC50 [1, 6] [nM] | EC50 [3, 7] [nM] | Structure (SMILES) | EC50 ([1]; cAMP accumulation, CHO-K1 cells stably overexpressing hGLP1R, read-out: hGLP1R potency (pEC50) (converted)) [nM] | SCTR EC50/GLP1R EC50 ratio ([1]; selectivity ratio, hSCTR vs hGLP1R, cAMP accumulation in CHO-K1 cells) | EC50 ([3]; cAMP accumulation, CHO-K1 cells stably overexpressing hSCTR, read-out: hSCTR potency (pEC50) (converted)) [nM] | EC50 ([3]; purified peptides, read-out: hSCTR pEC50 (converted)) [nM]
1 | 33673 | No | 11000 (≈ 2660 µM) | 34167 | 0.0126 | 398 | CC(C)C[C@H](NC(=O)[C@H](Cc1ccccc1)NC(=O)[C@H](CCCNC(=N)N)NC(=O)[C@H](CCC(N)=O)NC(=O)[C@H](CC(C)C)NC(=O)C(C)(C)NC(=O)[C@H](C)NC(=O)[C@H](CCC(=O)O)NC(=O)[C@H](CCC(=O)O)NC(=O)[C@H](CCCCNC(=O)COCCOCCNC(=O)COCCOCCNC(=O)CC[C@H](NC(=O)CCCCCCCCCCCCCCCCCCC(=O)O)C(=O)O)NC(=O)[C@H](CC(C)C)NC(=O)[C@H](Cc1ccc(O)cc1)NC(=O)[C@H](CO)NC(=O)[C@@H](NC(=O)[C@H](CC(=O)O)NC(=O)[C@H](CO)NC(=O)[C@@H](NC(=O)[C@H](Cc1ccccc1)NC(=O)[C@@H](NC(=O)CNC(=O)[C@H](CCC(=O)O)NC(=O)C(C)(C)NC(=O)[C@@H](N)Cc1c[nH]cn1)[C@@H](C)O)[C@@H](C)O)C(C)C)C(=O)N[C@@H](CCC(=O)O)C(=O)N[C@@H](Cc1c[nH]cn1)C(=O)N[C@@H](CC(C)C)C(=O)N[C@H](C(=O)N[C@@H](CCC(=O)O)C(=O)N[C@@H](C)C(=O)N[C@@H](C)C(N)=O)C(C)C [compound 209] (H-H[Aib]EGTFTSDVSYLK([AEEA-AEEA-γGlu-C20 diacid])EEA[Aib]LQRFLEHLVEAA-NH2) |  |  |  | 
2 |  | No | 8300 (≈ 2020 µM) |  |  |  | CC(C)C[C@H](NC(=O)[C@H](Cc1ccccc1)NC(=O)[C@H](CCCNC(=N)N)NC(=O)[C@H](CCC(N)=O)NC(=O)[C@H](CC(C)C)NC(=O)C(C)(C)NC(=O)[C@H](C)NC(=O)[C@H](CCC(=O)O)NC(=O)[C@H](CCC(=O)O)NC(=O)[C@H](CCCCNC(=O)COCCOCCNC(=O)COCCOCCNC(=O)CC[C@H](NC(=O)CCCCCCCCCCCCCCCCCCC(=O)O)C(=O)O)NC(=O)[C@H](CC(C)C)NC(=O)[C@H](CCC(=O)O)NC(=O)[C@H](CO)NC(=O)[C@@H](NC(=O)[C@H](CC(=O)O)NC(=O)[C@H](CO)NC(=O)[C@@H](NC(=O)[C@H](Cc1ccccc1)NC(=O)[C@@H](NC(=O)CNC(=O)[C@H](CCC(=O)O)NC(=O)C(C)(C)NC(=O)[C@@H](N)Cc1c[nH]cn1)[C@@H](C)O)[C@@H](C)O)C(C)C)C(=O)N[C@@H](CCC(=O)O)C(=O)N[C@@H](Cc1c[nH]cn1)C(=O)N[C@@H](CC(C)C)C(=O)N[C@H](C(=O)N[C@@H](CCC(=O)O)C(=O)N[C@@H](C)C(=O)N[C@@H](C)C(N)=O)C(C)C [compound 210] (H-H[Aib]EGTFTSDVSELK([AEEA-AEEA-γGlu-C20 diacid])EEA[Aib]LQRFLEHLVEAA-NH2) |  |  |  | 
3 | 63571 | No | 8200 (≈ 2000 µM) | 54706 | 0.0158 | 1000 | CC(C)C[C@H](NC(=O)[C@H](CC(C)C)NC(=O)[C@H](Cc1ccc(O)cc1)NC(=O)[C@H](CO)NC(=O)[C@@H](NC(=O)[C@H](CC(=O)O)NC(=O)[C@H](CO)NC(=O)[C@@H](NC(=O)[C@H](Cc1ccccc1)NC(=O)[C@@H](NC(=O)CNC(=O)[C@H](CCC(=O)O)NC(=O)C(C)(C)NC(=O)[C@@H](N)Cc1c[nH]cn1)[C@@H](C)O)[C@@H](C)O)C(C)C)C(=O)N[C@@H](CCC(=O)O)C(=O)N[C@@H](CCC(=O)O)C(=O)N[C@@H](C)C(=O)NC(C)(C)C(=O)N[C@@H](CC(C)C)C(=O)N[C@@H](CCC(N)=O)C(=O)N[C@@H](CCCNC(=N)N)C(=O)N[C@@H](Cc1ccccc1)C(=O)N[C@@H](CC(C)C)C(=O)N[C@@H](CCC(=O)O)C(=O)N[C@@H](CCCCNC(=O)COCCOCCNC(=O)COCCOCCNC(=O)CC[C@H](NC(=O)CCCCCCCCCCCCCCCCCCC(=O)O)C(=O)O)C(=O)N[C@@H](CC(C)C)C(=O)N[C@H](C(=O)N[C@@H](CCC(=O)O)C(=O)N[C@@H](C)C(=O)N[C@@H](C)C(N)=O)C(C)C [compound 213] (H-H[Aib]EGTFTSDVSYLLEEA[Aib]LQRFLEK([AEEA-AEEA-γGlu-C20 diacid])LVEAA-NH2) |  |  |  | 

More lines, now with the values behind:

Row | Structure (SMILES) | Selectivity ([1]; purified peptides) | Fibril formation [2] | solubility [4] [µg/mL] | Selectivity [1, 5] | EC50 [1, 6] [nM] | EC50 [3, 7] [nM] | EC50 ([1]; cAMP accumulation, CHO-K1 cells stably overexpressing hGLP1R, read-out: hGLP1R potency (pEC50) (converted)) [nM] | SCTR EC50/GLP1R EC50 ratio ([1]; selectivity ratio, hSCTR vs hGLP1R, cAMP accumulation in CHO-K1 cells) | EC50 ([3]; cAMP accumulation, CHO-K1 cells stably overexpressing hSCTR, read-out: hSCTR potency (pEC50) (converted)) [nM] | EC50 ([3]; purified peptides, read-out: hSCTR pEC50 (converted)) [nM]
4 | CC(C)C[C@H](NC(=O)[C@H](Cc1ccccc1)NC(=O)[C@H](CCCNC(=N)N)NC(=O)[C@H](CCC(N)=O)NC(=O)[C@H](CC(C)C)NC(=O)C(C)(C)NC(=O)[C@H](C)NC(=O)[C@H](CCC(=O)O)NC(=O)[C@H](CCC(=O)O)NC(=O)[C@H](CCCCNC(=O)COCCOCCNC(=O)COCCOCCNC(=O)CC[C@H](NC(=O)CCCCCCCCCCCCCCCCCCC(=O)O)C(=O)O)NC(=O)[C@H](CC(C)C)NC(=O)[C@H](Cc1ccc(O)cc1)NC(=O)[C@H](CO)NC(=O)[C@@H](NC(=O)[C@H](CC(=O)O)NC(=O)[C@H](CO)NC(=O)[C@@H](NC(=O)[C@H](Cc1ccccc1)NC(=O)[C@@H](NC(=O)CNC(=O)[C@H](CCC(=O)O)NC(=O)C(C)(C)NC(=O)[C@@H](N)Cc1c[nH]cn1)[C@@H](C)O)[C@@H](C)O)C(C)C)C(=O)N[C@@H](CCC(=O)O)C(=O)N[C@@H](Cc1c[nH]cn1)C(=O)N[C@@H](CC(C)C)C(=O)N[C@H](C(N)=O)C(C)C [compound 203] (H-H[Aib]EGTFTSDVSYLK([AEEA-AEEA-γGlu-C20 diacid])EEA[Aib]LQRFLEHLV-NH2) | 11176 | No | 9800 (≈ 2540 µM) |  |  |  | 0.02 | 10000 | 200 | 200
5 | CC(C)C[C@H](NC(=O)[C@H](CC(C)C)NC(=O)[C@H](CCCNC(=N)N)NC(=O)[C@H](CO)NC(=O)[C@@H](NC(=O)[C@H](CC(=O)O)NC(=O)[C@H](CO)NC(=O)[C@@H](NC(=O)[C@H](Cc1ccccc1)NC(=O)[C@@H](NC(=O)CNC(=O)[C@H](CCC(=O)O)NC(=O)C(C)(C)NC(=O)[C@@H](N)Cc1c[nH]cn1)[C@@H](C)O)[C@@H](C)O)C(C)C)C(=O)N[C@@H](CCC(=O)O)C(=O)N[C@@H](CCC(=O)O)C(=O)N[C@@H](C)C(=O)NC(C)(C)C(=O)N[C@@H](CC(C)C)C(=O)N[C@@H](CCC(N)=O)C(=O)N[C@@H](CCCNC(=N)N)C(=O)N[C@@H](Cc1ccccc1)C(=O)N[C@@H](CC(C)C)C(=O)N[C@@H](CCC(=O)O)C(=O)N[C@@H](CCCCNC(=O)COCCOCCNC(=O)COCCOCCNC(=O)CC[C@H](NC(=O)CCCCCCCCCCCCCCCCCCC(=O)O)C(=O)O)C(=O)N[C@@H](CC(C)C)C(=O)N[C@H](C(=O)N[C@@H](CCC(=O)O)C(=O)N[C@@H](C)C(=O)N[C@@H](C)C(N)=O)C(C)C [compound 212] (H-H[Aib]EGTFTSDVSRLLEEA[Aib]LQRFLEK([AEEA-AEEA-γGlu-C20 diacid])LVEAA-NH2) | 2857 | No | 8400 (≈ 2050 µM) | 2864 | 0.02 | 63.1 |  |  |  | 
